# How the values were obtained:
# Type in all cases: biochemical
# [1] = molecular target: GSK3β (Homo sapiens, UniProt P49841); test: Kinase panel screen and IC50
# Description: (§1) Figure 7 (see also Table S4) summarizes the results of this assay as a histogram plotting the percentage of the remaining enzyme activity (x-axis) as a function of added lead compound (HL^8: blue trace, 8: red trace) for each of the 50 enzymes assayed (y-axis). […] Thus, the coordination to copper(II) completely changes the kinase inhibition profile of HL^8.
# (§2) Figure 7 Screening of HL^8 and 8 against 50 enzymes: histogram with % remaining activity on the x-axis plotted against the compound identifier (blue trace: HL^8 and red trace: 8) and enzyme identifier on the […]. The screen was carried out at a compound concentration of 10 μM, an enzyme concentration of 50 nM, and an ATP concentration of 100 μM.
# Both compounds were screened against the respective enzymes, and IC50 values were determined.
# (§3) All kinase assays were carried out using Multidrop 384’s at room temperature in a total assay volume of 25.5 μL. To plates containing 0.5 μL of HL^8 and 8, DMSO control or acid blank […], 15 μL of an enzyme mix containing enzyme […], and excess peptide/protein substrate in buffer was added. Compounds were pre-incubated in the presence of the enzyme and peptide/protein substrate for 5 min before initiation of the reaction by addition of 10 μL of ATP (final concentration selected for each kinase at 5, 20, or 50 μM). Assays were carried out for 30 min at room temperature before termination by the addition of 5 μL of orthophosphoric acid. The assay plates were then harvested onto P81 Unifilter Plates by a PerkinElmer Harvester and air dried. The dry Unifilter plates were then sealed on the addition of MicroScint O and were counted in PerkinElmer Topcount scintillation counters.
# IC50 values were determined by the International Centre for Kinase Profiling at the University of Dundee according to standard protocols published elsewhere.[109],[110]
# [2] = molecular target: EF2K (Homo sapiens, UniProt O00418); test: Kinase panel screen; conditions: 10 µM compound
# Description: as §1, §2, §3
# [3] = molecular target: VEG-FR (Homo sapiens, UniProt P17948); test: Kinase panel screen; conditions: 10 µM compound
# Description: as §1, §2, §3
# [4] = molecular target: PRK2 (Homo sapiens, UniProt Q16513); test: Kinase panel screen; conditions: 10 µM compound
# Description: as §1, §2, §3
# [5] = molecular target: MST2 (Homo sapiens, UniProt Q13188); test: Kinase panel screen; conditions: 10 µM compound
# Description: as §1, §2, §3
# [6] = molecular target: HIPK2 (Homo sapiens, UniProt Q9H2X6); test: Kinase panel screen; conditions: 10 µM compound
# Description: as §1, §2, §3
# [7] = molecular target: CK2 (Homo sapiens, UniProt P68400); test: Kinase panel screen; conditions: 10 µM compound
# Description: as §1, §2, §3
# [8] = molecular target: BTK (Homo sapiens, UniProt Q06187); test: Kinase panel screen; conditions: 10 µM compound
# Description: as §1, §2, §3
# [9] = molecular target: TTK (Homo sapiens, UniProt P33981); test: Kinase panel screen; conditions: 10 µM compound
# Description: as §1, §2, §3
# [10] = molecular target: PDK1 (Homo sapiens, UniProt O15530); test: Kinase panel screen; conditions: 10 µM compound
# Description: as §1, §2, §3
# [11] = molecular target: SYK (Homo sapiens, UniProt P43405); test: Kinase panel screen; conditions: 10 µM compound
# Description: as §1, §2, §3
# [12] = molecular target: DYRK1A (Homo sapiens, UniProt Q13627); test: Kinase panel screen; conditions: 10 µM compound
# Description: as §1, §2, §3
# [13] = molecular target: TAK1 (Homo sapiens, UniProt O43318); test: Kinase panel screen; conditions: 10 µM compound
# Description: as §1, §2, §3
# [14] = molecular target: EPH-A2 (Homo sapiens, UniProt P29317); test: Kinase panel screen; conditions: 10 µM compound
# Description: as §1, §2, §3
# [15] = molecular target: p38a MAPK (Homo sapiens, UniProt Q16539); test: Kinase panel screen; conditions: 10 µM compound
# Description: as §1, §2, §3
# [16] = molecular target: JNK1 (Homo sapiens, UniProt P45983); test: Kinase panel screen; conditions: 10 µM compound
# Description: as §1, §2, §3
# [17] = molecular target: JAK3 (Homo sapiens, UniProt P52333); test: Kinase panel screen; conditions: 10 µM compound
# Description: as §1, §2, §3
# [18] = molecular target: IRAK4 (Homo sapiens, UniProt Q9NWZ3); test: Kinase panel screen; conditions: 10 µM compound
# Description: as §1, §2, §3
# [19] = molecular target: Aurora B (Homo sapiens, UniProt Q96GD4); test: Kinase panel screen; conditions: 10 µM compound
# Description: as §1, §2, §3
# [20] = molecular target: MLK3 (Homo sapiens, UniProt Q16584); test: Kinase panel screen; conditions: 10 µM compound
# Description: as §1, §2, §3
# [21] = molecular target: PAK4 (Homo sapiens, UniProt O96013); test: Kinase panel screen; conditions: 10 µM compound
# Description: as §1, §2, §3
# [22] = molecular target: LKB1 (Homo sapiens, UniProt Q15831); test: Kinase panel screen; conditions: 10 µM compound
# Description: as §1, §2, §3
# [23] = molecular target: MARK3 (Homo sapiens, UniProt P27448); test: Kinase panel screen; conditions: 10 µM compound
# Description: as §1, §2, §3
# [24] = molecular target: Src (Homo sapiens, UniProt P12931); test: Kinase panel screen; conditions: 10 µM compound
# Description: as §1, §2, §3
# [25] = molecular target: PKD1 (Homo sapiens, UniProt Q15139); test: Kinase panel screen; conditions: 10 µM compound
# Description: as §1, §2, §3
# [26] = molecular target: CAMKKb (Homo sapiens, UniProt Q96RR4); test: Kinase panel screen; conditions: 10 µM compound
# Description: as §1, §2, §3
# [27] = molecular target: PKCa (Homo sapiens, UniProt P17252); test: Kinase panel screen; conditions: 10 µM compound
# Description: as §1, §2, §3
# [28] = molecular target: NEK6 (Homo sapiens, UniProt Q9HC98); test: Kinase panel screen; conditions: 10 µM compound
# Description: as §1, §2, §3
# [29] = molecular target: RSK1 (Homo sapiens, UniProt Q15418); test: Kinase panel screen; conditions: 10 µM compound
# Description: as §1, §2, §3
# [30] = molecular target: CK1δ (Homo sapiens, UniProt P48730); test: Kinase panel screen; conditions: 10 µM compound
# Description: as §1, §2, §3
# [31] = molecular target: Lck (Homo sapiens, UniProt P06239); test: Kinase panel screen; conditions: 10 µM compound
# Description: as §1, §2, §3
# [32] = molecular target: MKK1 (Homo sapiens, UniProt Q02750); test: Kinase panel screen; conditions: 10 µM compound
# Description: as §1, §2, §3
# [33] = molecular target: RIPK2 (Homo sapiens, UniProt O43353); test: Kinase panel screen; conditions: 10 µM compound
# Description: as §1, §2, §3
# [34] = molecular target: PKBa (Homo sapiens, UniProt P31749); test: Kinase panel screen; conditions: 10 µM compound
# Description: as §1, §2, §3
# Chain of GSK3β (P49841 whole entry): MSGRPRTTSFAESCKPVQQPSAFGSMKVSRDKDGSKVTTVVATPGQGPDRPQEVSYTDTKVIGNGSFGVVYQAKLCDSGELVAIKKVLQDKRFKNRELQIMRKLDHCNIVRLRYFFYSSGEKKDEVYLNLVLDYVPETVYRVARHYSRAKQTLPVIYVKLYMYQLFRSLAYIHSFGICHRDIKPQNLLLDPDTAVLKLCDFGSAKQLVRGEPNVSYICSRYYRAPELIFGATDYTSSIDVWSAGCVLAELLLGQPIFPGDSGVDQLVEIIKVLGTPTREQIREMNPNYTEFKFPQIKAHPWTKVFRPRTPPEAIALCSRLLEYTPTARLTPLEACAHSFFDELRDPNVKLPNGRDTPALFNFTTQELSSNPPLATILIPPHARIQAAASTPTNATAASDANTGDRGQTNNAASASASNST
# Chain of Lck (P06239 whole entry): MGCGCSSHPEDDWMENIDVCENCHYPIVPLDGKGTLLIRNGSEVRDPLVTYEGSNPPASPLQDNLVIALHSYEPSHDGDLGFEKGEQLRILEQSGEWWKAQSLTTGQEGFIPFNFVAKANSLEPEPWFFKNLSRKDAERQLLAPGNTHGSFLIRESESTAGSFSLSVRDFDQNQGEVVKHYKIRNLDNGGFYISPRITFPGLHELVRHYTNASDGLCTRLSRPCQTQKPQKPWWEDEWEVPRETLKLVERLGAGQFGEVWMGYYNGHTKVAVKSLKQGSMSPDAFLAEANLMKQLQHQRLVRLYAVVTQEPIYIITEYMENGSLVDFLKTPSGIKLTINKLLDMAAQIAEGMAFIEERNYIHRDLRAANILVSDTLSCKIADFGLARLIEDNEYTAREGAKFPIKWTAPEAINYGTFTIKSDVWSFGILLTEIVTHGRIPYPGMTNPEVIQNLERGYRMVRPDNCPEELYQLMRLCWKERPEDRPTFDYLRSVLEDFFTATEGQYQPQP
# Chain of PAK4 (O96013 whole entry): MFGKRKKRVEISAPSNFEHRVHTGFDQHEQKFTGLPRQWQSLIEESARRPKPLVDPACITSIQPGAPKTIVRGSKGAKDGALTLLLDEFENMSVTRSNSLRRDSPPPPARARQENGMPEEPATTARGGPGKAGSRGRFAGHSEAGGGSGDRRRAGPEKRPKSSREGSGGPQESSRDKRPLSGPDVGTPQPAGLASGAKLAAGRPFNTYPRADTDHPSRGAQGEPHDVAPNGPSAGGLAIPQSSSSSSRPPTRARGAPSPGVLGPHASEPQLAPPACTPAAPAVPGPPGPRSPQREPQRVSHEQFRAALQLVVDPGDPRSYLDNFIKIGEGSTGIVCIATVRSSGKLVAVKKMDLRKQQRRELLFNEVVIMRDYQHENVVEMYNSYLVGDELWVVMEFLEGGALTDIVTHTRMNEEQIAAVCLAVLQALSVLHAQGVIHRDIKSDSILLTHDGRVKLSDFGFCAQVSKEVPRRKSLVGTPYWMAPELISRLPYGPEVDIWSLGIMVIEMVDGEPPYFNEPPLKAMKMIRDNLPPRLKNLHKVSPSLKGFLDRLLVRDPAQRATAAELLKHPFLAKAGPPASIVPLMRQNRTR
# Chain of CAMKKb (Q96RR4 whole entry): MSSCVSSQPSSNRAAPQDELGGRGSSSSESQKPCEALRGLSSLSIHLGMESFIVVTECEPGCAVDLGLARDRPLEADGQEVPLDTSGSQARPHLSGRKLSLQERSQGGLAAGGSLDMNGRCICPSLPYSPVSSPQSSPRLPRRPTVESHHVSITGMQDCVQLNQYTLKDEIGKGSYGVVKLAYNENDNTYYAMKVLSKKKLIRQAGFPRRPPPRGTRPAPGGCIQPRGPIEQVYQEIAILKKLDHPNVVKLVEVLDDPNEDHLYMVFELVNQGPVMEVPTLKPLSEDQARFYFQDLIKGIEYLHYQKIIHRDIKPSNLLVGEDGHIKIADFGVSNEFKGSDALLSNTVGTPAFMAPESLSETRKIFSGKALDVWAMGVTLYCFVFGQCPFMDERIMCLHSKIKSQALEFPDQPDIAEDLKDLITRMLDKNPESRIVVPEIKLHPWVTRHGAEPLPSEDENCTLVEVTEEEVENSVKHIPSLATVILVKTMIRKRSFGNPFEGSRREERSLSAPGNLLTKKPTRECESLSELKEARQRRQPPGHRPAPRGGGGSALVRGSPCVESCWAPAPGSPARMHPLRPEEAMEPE
# Chain of MST2 (Q13188 whole entry): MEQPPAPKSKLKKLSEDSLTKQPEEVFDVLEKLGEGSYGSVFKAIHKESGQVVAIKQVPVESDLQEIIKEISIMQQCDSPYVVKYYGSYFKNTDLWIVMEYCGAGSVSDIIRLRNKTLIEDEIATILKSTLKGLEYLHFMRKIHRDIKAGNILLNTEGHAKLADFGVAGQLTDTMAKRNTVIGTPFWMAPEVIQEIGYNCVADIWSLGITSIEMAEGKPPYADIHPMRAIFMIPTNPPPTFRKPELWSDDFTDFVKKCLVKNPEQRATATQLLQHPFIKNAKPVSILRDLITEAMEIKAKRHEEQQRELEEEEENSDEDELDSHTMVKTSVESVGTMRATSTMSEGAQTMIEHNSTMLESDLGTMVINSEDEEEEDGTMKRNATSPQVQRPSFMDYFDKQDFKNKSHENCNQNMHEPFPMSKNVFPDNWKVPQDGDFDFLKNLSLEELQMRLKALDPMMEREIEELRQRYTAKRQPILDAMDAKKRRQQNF
# Chain of NEK6 (Q9HC98 whole entry): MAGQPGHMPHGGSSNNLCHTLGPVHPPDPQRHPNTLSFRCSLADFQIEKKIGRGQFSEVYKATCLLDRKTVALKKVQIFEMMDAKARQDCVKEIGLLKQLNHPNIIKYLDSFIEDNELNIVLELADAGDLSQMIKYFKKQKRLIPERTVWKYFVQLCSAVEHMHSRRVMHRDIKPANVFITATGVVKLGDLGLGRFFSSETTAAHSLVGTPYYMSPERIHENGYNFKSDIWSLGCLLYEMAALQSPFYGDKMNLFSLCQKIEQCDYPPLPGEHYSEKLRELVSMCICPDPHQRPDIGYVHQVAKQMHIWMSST
# Chain of EPH-A2 (P29317 24-976): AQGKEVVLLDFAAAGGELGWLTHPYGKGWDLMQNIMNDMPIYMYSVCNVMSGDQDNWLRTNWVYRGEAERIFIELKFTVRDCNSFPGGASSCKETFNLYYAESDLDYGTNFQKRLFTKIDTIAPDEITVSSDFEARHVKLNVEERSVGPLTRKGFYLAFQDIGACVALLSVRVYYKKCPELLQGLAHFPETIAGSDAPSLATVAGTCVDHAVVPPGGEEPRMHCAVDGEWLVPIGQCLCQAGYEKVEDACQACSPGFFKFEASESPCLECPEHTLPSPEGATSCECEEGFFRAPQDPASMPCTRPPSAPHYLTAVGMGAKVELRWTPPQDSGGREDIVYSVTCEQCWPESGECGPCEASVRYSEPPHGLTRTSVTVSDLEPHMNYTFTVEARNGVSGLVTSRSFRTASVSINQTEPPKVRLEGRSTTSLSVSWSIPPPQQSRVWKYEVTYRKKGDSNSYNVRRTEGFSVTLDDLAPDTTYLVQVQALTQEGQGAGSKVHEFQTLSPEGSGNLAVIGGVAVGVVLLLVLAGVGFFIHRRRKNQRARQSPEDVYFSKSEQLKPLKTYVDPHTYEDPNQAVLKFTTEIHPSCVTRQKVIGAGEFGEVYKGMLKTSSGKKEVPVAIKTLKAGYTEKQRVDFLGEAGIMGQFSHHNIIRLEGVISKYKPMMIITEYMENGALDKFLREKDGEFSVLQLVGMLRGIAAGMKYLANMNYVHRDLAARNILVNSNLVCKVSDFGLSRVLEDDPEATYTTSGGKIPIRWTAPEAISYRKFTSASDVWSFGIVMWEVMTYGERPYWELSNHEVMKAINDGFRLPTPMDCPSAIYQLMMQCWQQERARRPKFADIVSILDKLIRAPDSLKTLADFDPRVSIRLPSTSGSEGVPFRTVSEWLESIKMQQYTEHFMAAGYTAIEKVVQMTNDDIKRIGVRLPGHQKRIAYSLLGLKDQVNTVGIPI
# Chain of IRAK4 (Q9NWZ3 whole entry): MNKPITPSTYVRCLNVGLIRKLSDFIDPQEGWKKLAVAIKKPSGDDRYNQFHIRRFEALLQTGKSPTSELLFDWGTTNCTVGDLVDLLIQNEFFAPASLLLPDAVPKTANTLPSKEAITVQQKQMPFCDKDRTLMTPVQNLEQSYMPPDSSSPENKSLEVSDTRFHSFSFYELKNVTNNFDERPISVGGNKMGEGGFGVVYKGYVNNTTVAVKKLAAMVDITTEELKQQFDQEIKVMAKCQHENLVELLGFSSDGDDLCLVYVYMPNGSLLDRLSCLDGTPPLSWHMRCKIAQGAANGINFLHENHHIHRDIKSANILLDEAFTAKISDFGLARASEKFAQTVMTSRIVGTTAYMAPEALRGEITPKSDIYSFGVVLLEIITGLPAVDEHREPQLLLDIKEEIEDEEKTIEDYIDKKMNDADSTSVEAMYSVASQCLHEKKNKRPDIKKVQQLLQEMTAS
smiles,measurement,setting,value
"CC(=NNc1nc2ccccc2c2c1[nH]c1ccc(Br)cc12)c1ccc(CN2CCOCC2)cn1.[Cl][Cu][Cl] [compound 8, CuCl2(HL^8)·H2O]",% remaining activity,"[1]; GSK3β, 10 µM compound",32%
same,IC50,[1]; read-out: IC50 against GSK3β,1.64 µM
same,% remaining activity,[2],108%
same,% remaining activity,[3],77%
same,% remaining activity,[4],38%
same,% remaining activity,[5],82%
same,% remaining activity,[6],108%
same,% remaining activity,[7],79%
same,% remaining activity,[8],61%
same,% remaining activity,[9],64%
same,% remaining activity,[10],121%
same,% remaining activity,[11],39%
same,% remaining activity,[12],77%
same,% remaining activity,[13],120%
same,% remaining activity,[14],132%
same,% remaining activity,[15],123%
same,% remaining activity,[16],134%
same,% remaining activity,[17],120%
same,% remaining activity,[18],105%
same,% remaining activity,[19],78%
same,% remaining activity,[20],41%
same,% remaining activity,[21],144%
same,% remaining activity,[22],107%
same,% remaining activity,[23],112%
same,% remaining activity,[24],125%
same,% remaining activity,[25],65%
same,% remaining activity,[26],98%
same,% remaining activity,[27],80%
same,% remaining activity,[28],43%
same,% remaining activity,[29],53%
same,% remaining activity,[30],98%
same,% remaining activity,[31],54%
same,% remaining activity,[32],94%
same,% remaining activity,[33],95%
same,% remaining activity,[34],82%

# Reference: article PMC8842277, “Highly Antiproliferative Latonduine and Indolo[2,3-c]quinoline Derivatives: Complex Formation with Copper(II) Markedly Changes the Kinase Inhibitory Profile” (Journal of Medicinal Chemistry, 2022)
